Measurements reported in US6656921B1, “Use of zinc hyaluronate against peptic ulcer” (Richter Gedeon Vegyeszeti Gyar RT., priority 1997, dated 2003).
Several values for one entry are separate records, joined by “and”; a condition that tells them apart may be missing. Identical values can stand only once. Marks after values point to notes of the source that are not given here.

Assays:
[1] = tested on: Helicobacter pylori; assay: Activity against Helicobacter pylori (agar MIC); format: cell-based
Experimental: These experiments were performed on Helicobacter pylori strains cultivated from the gastric biopsy samples of patients suffering from various ulcers. An 1% by (w/w) solutions of De-Nol (colloidal bismuth subcitrate) was used as reference substance. An agar medium supplemented with 10% of bovine blood was employed. Plates containing no substance to be tested were used as controls. The plates inoculated were incubated at 37° C. in a gas atmosphere containing 5% of oxygen and 7-8% of carbon dioxide for 3-5 days. Minimum inhibitory concentration (MIC) value was considered to be the lowest concentration of substances totally inhibiting the growth (propagation) of well-propagating bacteria on control plates.

[2] = tested on: platelet activating factor (PAF) induced gastric lesion; assay: Inhibition of gastric damage induced by platelet activating factor (PAF); format: in vivo, rat
Experimental: Male, RG-Wistar rats weighing between 200-250 g were used. Before the experiments animals were fasted for 24 hours but received water ad libitum. Experiments were carried out according to the technique similar to that described by Wallace and Whittle (1986). [Br.J.Pharmac., 89,415, (1986)]. Animals were anaesthetized by intraperitoneal administration of urethane at a dose of 1 g/kg in a volume of 10 ml/kg. Femoral vein was then prepared and cannulated for administration of ulcerogenic PAF. After the surgery PAF was infused intravenously at a rate of 0.1 ml/min for ten minutes at a dose of 200 ng/kg/min. Test compounds were given 30 minutes before the PAF challenge. One hour after the infusion of PAF animals were sacrificed by cervical dislocation; their stomachs were removed and opened along the greater curvature. The hemorrhagic erosions were evaluated by a zero to three scoring system.

[3] = tested on: acidified ethanol induced gastric lesion; assay: Inhibition of acidified-ethanol induced gastric lesions; format: in vivo, rat; conditions: for Inhibition / Lesion length/stomach mm ± S.E.M.: 30 min before acidified ethanol
Experimental: Female RG-Wistar rats weighing between 120-150 g were used. Before experiments animals were fasted for 24 hours but received water ad libitum.
Experiments were carried out according to the technique similar to that described by A. Robert [Gastroenterology 77, […] (1979)].
Acidified ethanol (mixture of 50 ml of abs. ethanol and 1 ml of concentrated HCI) was used as strong irritants. Dose of acidified ethanol was 0.5 ml/100 g body weight with intragastric administration. Test compounds were given orally 30 minutes before the acidified ethanol challenge. When the duration of action of test compound was studied test material was administered 60 or 120 minutes earlier to the irritating effect induced by acidified-ethanol effect. One hour after the acidified ethanol treatment rats were sacrificed by cervical dislocation. Stomachs were removed and opened along the greater curvature and mildly washed down. The longitudinal hemorrhagic lesions were assayed by length.
ED50 value was defined as the dose that gave a 50% decrease in ulcer index.

[4] = tested on: indomethacin induced gastric lesion; assay: Inhibition of indomethacin induced gastric lesion; format: in vivo, rat; conditions: for ED50 (dose protecting the stomach by 50% from indomethacin): p.o.
Experimental: 2. Inhibition of Indomethacin Induced Gastric Lesion Female RG Wistar rats weighing between 120-150 g were used. Before the experiments animals were fasted for 24 hours but received water ad libitum. Test compounds were given orally, 30 minutes later the animals were treated subcutaneously with indomethacin at a dose of 40 mg/kg. Four hours after the irritating indomethacin administration the animals were killed by cervical dislocation. The stomachs were removed, opened along the greater curvature and the hemorrhagic lesions were counted on the glandular stomach.
ED50 value represents the dose which protects the stomach by 50 % from the damaging effect of indomethacin.

[5] = tested on: stress-induced gastric lesion; assay: Inhibition of stress (cold-restraint) induced gastric lesions; format: in vivo, rat
Experimental: Female RG Wistar rats weighing between 120-150 g were used. Before the experiments animals were fasted for 24 hours but received water ad libitum. Experiments were carried out according to the technique similar to that described by Senay et al., (1967). [Proc. Soc. Exp. Biol. Med.124,1221, (1967)].
Test compounds were given orally. 30 minutes later the animals were immobilized in plastic restraint boxes then placed into a refrigerator at 4° C.-8° C. temperature. Four hours later the animals were removed from both the refrigerator and the restraint boxes and one hour later they were sacrificed by cervical dislocation. The stomachs were removed, opened along the greater curvature and hemorrhagic lesions were scored by a zero to 3 scale: stomachs free from any damage were given a score of 0, stomachs with only a few hemorrhagic lesion were given a score of 1, stomachs with more lesion numbers than 10 were given a score of 2, and stomachs with a lot of lesions were characterized with a score of 3.
The ED50 were defined as the dose needed to decrease the score of gastric lesions by 50%.

[6] = tested on: acetic acid induced chronic gastric ulcer; assay: Inhibition of acetic acid induced chronic gastric ulcer; format: in vivo, rat; conditions: for Ulcerated area mm^2 ± S.E.M.: day 5 to 14 after surgery
Experimental: Female, RG Wistar rats weighing between 120-150 g were used. Before the surgery animals were deprived of food for 24 hours but received water ad libitum. The chronic gastric ulcer was induced by the injection of 25 μl/animal of 20% (v/v) acetic acid into the gastric wall under light ether anaesthesia according to the method similar to that described by Takagi et al. (1969). The oral treatment with the test compounds was started five days after the surgery and continued in a once-a-day regimen up to the 14th day. The animals were killed on the 15th day and their stomachs were dissected. The severity of ulceration was evaluated by the measurement of the diameter of the ulcers and the area affected was calculated. The healing effect was expressed as differences in percentage between the control and test group values.

[7] = tested on: indomethacin induced intestinal ulcer; assay: Inhibition of indomethacin induced intestinal ulcer (tensile strength); format: in vivo, rat; conditions: for Effect against indomethacin induced intestinal ulceration (in words): rat, in vivo; for Tensile strength of intestinal wall as index of ulceration Hgmm ± S.E.M.: indomethacin 15 mg/kg p.o.
Experimental: Female, RG-Wistar, non-fasted rats weighing between 120-150 g were used. The intestinal ulcer was induced by oral administration of 15 mg/kg indomethacin. Test compound was given to animals orally 3 times over 48 hours in 24 hour equal intervals. The first introduction of test compound preceded the single indomethacin treatment by 60 minutes. Animals were killed 72 hours after the first administration of the test compound. Control animals received vehicle instead of test compound and normal rats mean non-fasted, non-treated rats. The small intestine segment from pylorus to cecum was removed, placed into 0.9% (w/v) sodium chloride solution at 37° C. and it was connected with a BP recorder through one of its ends via a polyethylene cannula. After ligating both ends of the prepartum the pressure was increased inside the intestine until air bubbles appeared at the weakened site of the intestinal wall. This pressure is expressed in Hgmm and is denoted tensile strength (TS).

[8] = tested on: gastrointestinal motility; assay: Gastrointestinal motility in the charcoal propulsion test; format: in vivo, rat; conditions: 100 mg/kg p.o.
Experimental: Experiments were performed on female, RG-Wistar rats weighing 120-140 g, which were fasted for 24 hours but received water ad libitum.
The experimental procedure was carried out according to the technique similar to that described of P. A. Janssen and A. J. Jageneau [J. Pharm. Pharmacel. 9, 381 (1957)].
Test compounds were given orally at a dose of 100 mg/kg. Control animals received physiological saline solution instead of test compounds. 30 minutes later, the 5% (w/v) charcoal suspension was administered orally at a volume of 0.5 ml/animal. 60 minutes after the charcoal treatment the animals were sacrificed by cervical dislocation. The intestine from pylorus to cecum was removed, its lengths measured along with the distance traversed by the charcoal meal.
Motility was expressed as the ratio of length of charcoal suspension to the length of the whole intestine.

[9] = 100 mg/kg p.o., 30 min before indomethacin
[10] = 100 mg/kg p.o., 30 min before indomethacin 40 mg/kg s.c.
[11] = 40 mg/kg p.o., 30 min before indomethacin
[12] = 80 mg/kg p.o., 30 min before indomethacin
[13] = 160 mg/kg p.o., 30 min before indomethacin

zinc hyaluronate
In vitro activity against Helicobacter pylori (in words) [1]: commensurable with activity of De-Nol
MIC ([1]; strain 822/96, agar medium with 10% bovine blood, 37° C., 3-5 days): 500 µg/mL

sodium hyaluronate [reference compound]
Inhibition ([2]; 100 mg/kg p.o., 30 min before PAF): 0%
Lesion score/stomach ± S.E.M. ([2]; 100 mg/kg p.o., 30 min before PAF infusion, score 0-3): 2.6 ± 0.2^a
Protection against ulcerogenic effect of PAF (in words) ([2]; rat, in vivo): did not show such effect
Inhibition ([3]; 50 mg/kg p.o.): 15.6%
Lesion length/stomach mm ± S.E.M. ([3]; 50 mg/kg p.o.): 65.7 ± 9.8 mm
Inhibition ([3]; 100 mg/kg p.o.): 35.9%
Lesion length/stomach mm ± S.E.M. ([3]; 100 mg/kg p.o.): 49.9 ± 6.0 mm
Inhibition ([3]; 100 mg/kg p.o., listed as sodium hyaluronate): 36%
Inhibition [4, 9]: 36.2%
Lesion number/stomach ± S.E.M. [4, 10]: 14.6 ± 3.3
Protection of gastric mucosa against indomethacin (in words) ([4]; rat, in vivo): do not provide any effect
Lesion score/stomach ± S.E.M. ([5]; 100 mg/kg p.o., 30 min before cold-restraint stress, score 0-3): 0.9 ± 0.2
Inhibition ([5]; 100 mg/kg p.o., 30 min before stress): 40.0%
Protection against cold-restraint induced gastric damage (in words) ([5]; rat, in vivo): only slight protective effects

sucralfate [reference compound]
Ulcerated area mm^2 ± s.e.m. ([6]; 100 mg/kg p.o. once a day): 6.7 ± 1.5 mm^2
Ulcerated area mm^2 ± s.e.m. ([6]; 500 mg/kg p.o. once a day): 4.3 ± 1.3* mm^2
Effect on healing % ([6]; 500 mg/kg p.o. once a day, ↓healing slowed down, ↑healing accelerated): 53%
Effect against indomethacin induced intestinal ulceration (in words) [7]: totally ineffective
Inhibition ([3]; 50 mg/kg p.o.): 0%
Lesion length/stomach mm ± S.E.M. ([3]; 50 mg/kg p.o.): 64.0 ± 25.9 mm
Inhibition ([3]; 100 mg/kg p.o.): 75.3%
Lesion length/stomach mm ± S.E.M. ([3]; 100 mg/kg p.o.): 15.0 ± 5.5 mm
Inhibition ([3]; 400 mg/kg p.o.): 87.7%
Lesion length/stomach mm ± S.E.M. ([3]; 400 mg/kg p.o.): 7.5 ± 3.0 mm
Inhibition [4, 11]: 14.8%
Lesion number/stomach ± S.E.M. [4, 11]: 14.4 ± 4.8
Inhibition [4, 12]: 62.1%
Lesion number/stomach ± S.E.M. [4, 12]: 6.4 ± 2.2
Inhibition [4, 13]: 82.8%
Lesion number/stomach ± S.E.M. [4, 13]: 2.9 ± 1.4
ED50 (dose protecting the stomach by 50% from indomethacin) [4]: 74.9 mg/kg

zinc hyaluronate [Zinc hyaluronate (II)]
Ulcerated area mm^2 ± S.E.M. ([6]; 0.01 mg/kg p.o. once a day): 6.2 ± 1.0 mm^2
Ulcerated area mm^2 ± S.E.M. ([6]; 0.1 mg/kg p.o. once a day): 5.8 ± 1.1 mm^2
Ulcerated area mm^2 ± S.E.M. ([6]; 1.0 mg/kg p.o. once a day): 3.7 ± 1.6* mm^2 and 3.7 ± 0.6* mm^2
Effect on healing of acetic acid induced chronic ulcer (in words) ([6]; rat, in vivo): accelerated the healing
Tensile strength of intestinal wall as index of ulceration Hgmm ± S.E.M. ([7]; 3 × 1 mg/kg p.o.): 27.9 ± 8.9 Hgmm
Tensile strength of intestinal wall as index of ulceration Hgmm ± S.E.M. ([7]; 3 × 10 mg/kg p.o.): 41.3 ± 10.9 Hgmm
Tensile strength of intestinal wall as index of ulceration Hgmm ± S.E.M. ([7]; 3 × 100 mg/kg p.o.): 48.8 ± 11.3 Hgmm
Increase of tensile strength of intestinal wall compared to the control group ([7]; doses of 10 mg/kg and 100 mg/kg): almost three times
Effect against indomethacin induced intestinal ulceration (in words) [7]: had a protective effect on the intestinal wall
Inhibition ([3]; 10 mg/kg p.o.): 42.7%
Lesion length/stomach mm ± S.E.M. ([3]; 10 mg/kg p.o.): 48.0 ± 10.9 mm
Inhibition ([3]; 25 mg/kg p.o.): 77.3%
Lesion length/stomach mm ± S.E.M. ([3]; 25 mg/kg p.o.): 19.0 ± 4.4 mm
Inhibition ([3]; 50 mg/kg p.o.): 84.1%
Lesion length/stomach mm ± S.E.M. ([3]; 50 mg/kg p.o.): 13.3 ± 4.8 mm
Inhibition ([3]; 100 mg/kg p.o.): 98.1%
Lesion length/stomach mm ± S.E.M. ([3]; 100 mg/kg p.o.): 1.6 ± 0.5 mm
ED50 (dose giving 50% decrease in ulcer index) ([3]; p.o., 30 min pretreatment): 11.1 mg/kg
Inhibition ([4]; 1.0 mg/kg p.o., 30 min before indomethacin): 31.8%
Lesion number/stomach ± S.E.M. ([4]; 1.0 mg/kg p.o., 30 min before indomethacin 40 mg/kg s.c.): 8.8 ± 2.1
Inhibition ([4]; 10.0 mg/kg p.o., 30 min before indomethacin): 56.5%
Lesion number/stomach ± S.E.M. ([4]; 10.0 mg/kg p.o., 30 min before indomethacin 40 mg/kg s.c.): 7.4 ± 1.9
Inhibition [4, 9]: 78.2%
Lesion number/stomach ± S.E.M. [4, 10]: 3.7 ± 0.8
ED50 (dose protecting the stomach by 50% from indomethacin) [4]: 5.8 mg/kg
Effect on the intestinal motility (in words) [8]: absence of change in activity
Propulsion of charcoal suspension mm ± S.E.M. ([8]; 30 min before charcoal, 60 min after charcoal, listed as Zink-hyaluronate (II)): 610 ± 3.9 mm
Ratio of charcoal suspension to the whole intestinal part ([8]; listed as Zink-hyaluronate (II)): 0.77 ± 0.04
